# Experiments:
# [1] = system: mouse liver tissue and hepatocyte line; test: Summary statement: mouse liver tissue and hepatocyte line treated with the two GPR119 ligands; assay type: cell-based
# MCP-1 mRNA = MCP-1 mRNA after LPS stimulation in RAW264.7 cells (real time PCR); assay type: cell-based, mouse; conditions: RAW264.7, 3 μM, 10 ng/ml LPS, 6 hours
# Description: (§1) RAW264.7 cells cultured in 6-well plates were stabilized for 12 hours in a serum-free medium, and then exposed to 3 μM of MBX-2982 and 10 ng/ml of LPS. After 6 hours, RNA samples extracted with TRIZOL were reversely transcribed using a cDNA synthesis PCR kit to synthesize cDNAs. The cDNAs obtained through reverse transcription were used as a template, and primers for 5′ and 3′ flanking sequences of cDNAs to be amplified were as follows. Real time PCR (Mini-Opticon, Bio-Rad, US) was carried out and the expression levels of mRNA were investigated.
# (§2) Inflammatory marker change results evaluated after LPS stimulation for RAW264.7 cells, which were derived from a mouse macrophage cell line, are illustrated in FIG. 18.
# TNF-alpha mRNA = TNF-alpha mRNA after LPS stimulation in RAW264.7 cells (real time PCR); assay type: cell-based, mouse; conditions: RAW264.7, 3 μM, 10 ng/ml LPS, 6 hours
# Description: as §1, §2
# FAS = FAS expression under high-glucose/high-insulin exposure, HepG2 (western blot); assay type: cell-based, human
# Description: (§3) A 6-well plate was inoculated with HepG2 (ATCC, US), as a human hepatocyte line, and cultured until confluence in a DMEM medium containing 1% penicillin-streptomycin (Hyclone, US) and 10% fetal bovine serum (Hyclone, US) in a 5% CO2 incubator at 37° C. The medium containing 10% fetal bovine serum of the hepatocyte line grown to confluence was replaced by a medium not containing FBS. The cell line was additionally cultured for 18 hours and used as a sample for an experiment.
# (§4) Sodium dodecyl sulfate-polyacrylamide gel electrophoresis (SDS-PAGE) was carried out by means of a gel electrophoresis device (Mighty Small SE 250, Hoefer Scientific Instruments, San Francisco) according to a method by Laemmli (UK, Nature 227, 680-685, 1970). […] Whether total protein contents in samples are the same is determined using anti-β-actin and anti-LaminA/C antibodies. Changes in protein expression amounts were determined by measuring the intensities of chemiluminescence signals on the blot by means of densitometry. […] Each lane was calculated using AlphaEase™ version 5.5 software and background intensity was removed from the calculated values. […]
# SREBP-1c = SREBP-1c expression under high-glucose/high-insulin exposure, HepG2 (western blot); assay type: cell-based, human; conditions: 30 mM glucose, 200 nM insulin 24 hours, 1-3 μM ligand
# Description: as §3, §4
# iNOS protein = iNOS protein expression after LPS stimulation in RAW264.7 cells (western blot); assay type: cell-based, mouse; conditions: RAW264.7, 3 μM, 10 ng/ml LPS, 6 hours
# Description: RAW264.7 cells cultured in 6-well plates were stabilized for 12 hours in a serum-free medium, and then exposed to 3 μM of MBX-2982 and 10 ng/ml of LPS. After 6 hours, the cells were lysed in cytolysis buffer and voltexed. Centrifugation was conducted at 14,000 rpm and 4° C. for 20 minutes. A supernatant of the centrifuged solution was collected and then subjected to protein quantification by the Bradford assay. 15 μg of a protein thereof was electrophoresed on an SDS polyacrylamide gel, and then expression changes of iNOS and COX-2 proteins were measured by western blotting. Expression changes in triplicate experiments were measured with a densitometer and are shown as graphs.
# As described above, RAW264.7 cells, which were derived from a mouse macrophage cell line, was subjected to LPS stimulation, and then inflammatory marker changes therein were evaluated. Results are illustrated in FIG. 17.
compound,measurement,setting,value
"CCc1cnc(N2CCC(c3nc(COc4ccc(-n5cnnn5)cc4)cs3)CC2)nc1 [MBX2982, 4-((4-(1H-tetrazol-1-yl)phenoxy)methyl)-2-(1-(5-ethylpyrimidin-2-yl)piperidin-4-yl)thiazole]",activity of SREBP-1c,[1],inhibited
same,expression of GPR119,[1],increased
same,expression of acetyl CoA carboxylase (ACC),[1],inhibited
same,expression of fatty acid synthase (FAS),[1],inhibited
same,expression of stearoyl-CoA desaturase (SCD),[1],inhibited
same,expression of MCP-1 mRNA,MCP-1 mRNA,decreased
same,expression of TNF-alpha mRNA,TNF-alpha mRNA,decreased
same,FAS expression increased by high-glucose/high-insulin,FAS,inhibited
same,SREBP-1c and nuclear (active-type) SREBP-1C expression increased by high-glucose/high-insulin,SREBP-1c,completely inhibited
same,expression of iNOS protein,iNOS protein,decreased

# Reference: US20190008864A1, “PHARMACEUTICAL COMPOSITION CONTAINING GPR119 LIGAND AS EFFECTIVE INGREDIENT FOR PREVENTING OR TREATING NON-ALCOHOLIC STEATOHEPATITIS” (PHARMEDIX.CO., LTD., priority 2014, published 2019)
